Data as given in patent EP3228630A1, “COMBINATION OF AN APELIN ANTAGONIST AND AN ANGIOGENESIS INHIBITOR FOR THE TREATMENT OF CANCER” (IMBA-Institut für Molekulare Biotechnologie GmbH, priority 2016, dated 2017).

Test system: primary human endothelial cells (HUVECs)
Conditions: Apelin Pyr13 500nM, human VEGF 25ng/mL, 5 minutes, serum-free media
Description: Antibody array pathway analysis: For the human phospho-kinase antibody array (R&D Systems), primary HUVEC (human umbilical vein endothelial cells) were cultured overnight with media supplemented with 0.75% of fetal bovine serum (FBS) followed by 15 minutes of media with 0.5%. The cells were then stimulated in serum-free media with either Apelin Pyr13 (BACHEM H-4568, 500nM), human VEGF (Peprotech, 25ng/mL), both of them or either for 5 minutes. 100 µg of cell lysate were added to the membrane and incubated overnight at 4°C with gentle agitation, following the manufacturer instructions. Films were scanned and the intensity of the bands quantified using ImageJ.

Substance: apelin-13
- pathways regulated (phospho-antibody array): regulate similar pathways in endothelial cells
